± gives the standard deviation of the averaged measurements.
Experiments:
Assay in all cases: level (log10 ratio to DMSO vehicle control); higher = higher biomarker level / cell amount than vehicle control
[1] = compound: FC(F)(F)C(F)(F)C(F)(F)C(F)(F)C(F)(F)C(F)(F)CC1CO1 [3-(Perfluorohexyl)-1,2-epoxypropane]; conditions: in DMSO
Protocol: (§1)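 BioMAP Diversity Plus panel of 12 human primary cell co-culture systems (3C, 4H, LPS, SAg, BT, BF4T, BE3C, CASM3C, HDF3CGF, KF3CT, MyoF, Mphg). Compounds were added 1 h before stimulation and left for 24 h (MyoF 48 h; BT 72 h for soluble read-outs or 6 d for IgG). Biomarkers were read by ELISA, cytotoxicity by SRB, PBMC viability and proliferation by Alamar Blue. Each well value was divided by the mean of 8 DMSO control wells on the same plate and log10 transformed; duplicate blinded samples were tested at 4 concentrations.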

[2] = compound: NS(=O)(=O)C(F)(F)C(F)(F)C(F)(F)C(F)(F)C(F)(F)C(F)(F)F [Perfluorohexanesulfonamide]; conditions: in DMSO
Protocol: as §1

[3] = compound: NC(=O)C(F)(F)C(F)(F)C(F)(F)C(F)F; conditions: in DMSO
Protocol: as §1

[4] = compound: O=S(=O)(O)CCC(F)(F)C(F)(F)C(F)(F)C(F)(F)C(F)(F)C(F)(F)F [6:2 Fluorotelomer sulfonic acid]; conditions: in DMSO
Protocol: as §1

[5] = compound: FC(F)(F)C(F)(F)C(F)(F)CC1CO1 [1H,1H-Heptafluorobutyl epoxide]; conditions: in DMSO
Protocol: as §1

[6] = compound: O=S(=O)(F)C(F)(F)C(F)(F)C(F)(F)C(F)(F)C(F)(F)C(F)(F)C(F)(F)C(F)(F)F [Perfluorooctanesulfonyl fluoride]; conditions: in DMSO
Protocol: as §1

[7] = compound: O=S(=O)(O)C(F)(F)C(F)(F)C(F)(F)C(F)(F)C(F)(F)C(F)(F)C(F)(F)C(F)(F)C(F)(F)C(F)(F)F [Sodium perfluorodecanesulfonate]; conditions: in DMSO
Protocol: as §1

[8] = compound: C=CC(=O)OCC(F)(F)C(F)(F)C(F)(F)COC(=O)C=C [1H,1H,5H,5H-Perfluoro-1,5-pentanediol diacrylate]; conditions: 6700 nM; in DMSO
Protocol: as §1

[9] = compound: FC(F)(F)C(F)(F)C(F)(F)C(F)(F)C(F)(F)C(F)(F)C(F)(F)I [1-Iodopentadecafluoroheptane]; conditions: in DMSO
Protocol: as §1

Heptafluorobutyl iodide = compound: FC(F)(F)C(F)(F)C(F)(F)CI [Heptafluorobutyl iodide]; conditions: in DMSO
Protocol: as §1

[10] = compound: C=C(C)C(=O)OCCC(F)(F)C(F)(F)C(F)(F)C(F)(F)C(F)(F)C(F)(F)F [6:2 Fluorotelomer methacrylate]; conditions: in DMSO
Protocol: as §1

[11] = compound: O=C(O)C=CC(F)(C(F)(F)F)C(F)(F)F [3-(Perfluoroisopropyl)-2-propenoic acid]; conditions: in DMSO
Protocol: as §1

Hexafluoroamylene glycol = compound: OCC(F)(F)C(F)(F)C(F)(F)CO [Hexafluoroamylene glycol]; conditions: in DMSO
Protocol: as §1

Octafluoroadipamide = compound: NC(=O)C(F)(F)C(F)(F)C(F)(F)C(F)(F)C(N)=O [Octafluoroadipamide]; conditions: in DMSO
Protocol: as §1

[12] = compound: COC(=O)C(F)(F)C(F)(F)OC(F)(C(F)(F)F)C(F)(F)OC(F)=C(F)F [Methyl perfluoro(3-(1-ethenyloxypropan-2-yloxy)propanoate)]; conditions: in DMSO
Protocol: as §1

[13] = compound: O=C(O)C(F)(F)C(F)(F)C(F)(F)C(F)(F)C(F)(F)C(F)(F)C(F)(F)C(F)(F)C(F)(F)C(F)F [11-H-Perfluoroundecanoic acid]; conditions: in DMSO
Protocol: as §1

[14] = compound: O=S(=O)(Cl)C(F)(F)C(F)(F)C(F)(F)C(F)(F)C(F)(F)C(F)(F)C(F)(F)C(F)(F)F [Perfluoro-1-octanesulfonyl chloride]; conditions: in DMSO
Protocol: as §1

[15] = compound: FC(F)(F)C(F)(F)CNCC(F)(F)C(F)(F)F [Bis(1H,1H-perfluoropropyl)amine]; conditions: in DMSO
Protocol: as §1

Nonafluoropentanamide = compound: NC(=O)C(F)(F)C(F)(F)C(F)(F)C(F)(F)F [Nonafluoropentanamide]; conditions: in DMSO
Protocol: as §1

## HDF3CGF:CXCL8/IL-8
[1]; 6700 nM
  level (log10): -0.0175 ± 0.0035
[1]; 20000 nM
  level (log10): 0.005 ± 0.0028
[1]; 60000 nM
  level (log10): 0.0145 ± 0.0064
[2]; 6700 nM
  level (log10): 0.0015 ± 0.0021
[2]; 20000 nM
  level (log10): 0.0035 ± 0.0021
[2]; 60000 nM
  level (log10): 0.017 ± 0.013
[3]; 6700 nM
  level (log10): -0.0085 ± 0.0035
[3]; 20000 nM
  level (log10): 0.0015 ± 0.0078
[3]; 60000 nM
  level (log10): 0.0045 ± 0.018
[4]; 6700 nM
  level (log10): -0.01 ± 0.014
[4]; 20000 nM
  level (log10): -0.007 ± 0.013
[4]; 60000 nM
  level (log10): 0.008 ± 0.037
[5]; 6700 nM
  level (log10): -0.0075 ± 0.022
[5]; 20000 nM
  level (log10): -0.0115 ± 0.0078
[5]; 60000 nM
  level (log10): 0.0005 ± 0.0078
[6]; 6700 nM
  level (log10): -0.002 ± 0.0028
[6]; 20000 nM
  level (log10): -0.0015 ± 0.00071
[6]; 60000 nM
  level (log10): 0.0085 ± 0.0021
[7]; 1500 nM
  level (log10): -0.0055 ± 0.0035
[7]; 4400 nM
  level (log10): -0.0095 ± 0.005
[7]; 13000 nM
  level (log10): 0.0165 ± 0.016
[7]; 40000 nM
  level (log10): 0.023 ± 0.0028
[8]
  level (log10): -1.07 ± 0.012
[9]; 6700 nM
  level (log10): -0.0055 ± 0.00071
[9]; 20000 nM
  level (log10): -0.001
Heptafluorobutyl iodide; 6700 nM
  level (log10): -0.003 ± 0.0057
Heptafluorobutyl iodide; 20000 nM
  level (log10): 0.0005 ± 0.00071
Heptafluorobutyl iodide; 60000 nM
  level (log10): 0.0125 ± 0.0092
[10]; 6700 nM
  level (log10): 0.007 ± 0.018
[10]; 20000 nM
  level (log10): 0.0045 ± 0.015
[10]; 60000 nM
  level (log10): 0.0035 ± 0.011
[11]; 6700 nM
  level (log10): -0.008 ± 0.0042
[11]; 20000 nM
  level (log10): 0.004 ± 0.011
[11]; 60000 nM
  level (log10): 0.0065 ± 0.013
Hexafluoroamylene glycol; 6700 nM
  level (log10): -0.0325 ± 0.04
Hexafluoroamylene glycol; 20000 nM
  level (log10): -0.011 ± 0.0028
Hexafluoroamylene glycol; 60000 nM
  level (log10): 0.009 ± 0.024
Octafluoroadipamide; 6700 nM
  level (log10): 0.006 ± 0.017
Octafluoroadipamide; 20000 nM
  level (log10): 0.0045 ± 0.0092
Octafluoroadipamide; 60000 nM
  level (log10): 0.007 ± 0.0028
[12]; 6700 nM
  level (log10): 0.0045 ± 0.011
[12]; 20000 nM
  level (log10): 0.0245 ± 0.0064
[13]; 6700 nM
  level (log10): -0.009 ± 0.0071
[13]; 20000 nM
  level (log10): -0.003 ± 0.016
[14]; 6700 nM
  level (log10): -0.008 ± 0.0014
[14]; 20000 nM
  level (log10): 0.0065 ± 0.0092
[14]; 60000 nM
  level (log10): 0.0265 ± 0.012
[15]; 6700 nM
  level (log10): -0.003
[15]; 20000 nM
  level (log10): -0.011 ± 0.0042
[15]; 60000 nM
  level (log10): 0.007 ± 0.016
Nonafluoropentanamide; 6700 nM
  level (log10): -0.0045 ± 0.0035
Nonafluoropentanamide; 20000 nM
  level (log10): -0.0005 ± 0.0021
Nonafluoropentanamide; 60000 nM
  level (log10): 0.0015 ± 0.005
